Source: the NIST ThermoML archive (doi:10.1007/s10765-008-0390-4)

Assay: xn = mol fraction of the nth substance listed
Conditions: 101 kPa, Liquid

c1ccccc1 [benzene] + CCCCO
mass density [kg/m3]
Conditions	288.15 K	293.15 K	298.15 K	303.15 K	308.15 K	313.15 K
x2 = 0	884.246	878.918	873.582	868.233	862.871	857.498
x2 = 0.0193	882.483	877.168	871.844	866.507	861.158	855.809
x2 = 0.0534	879.595	874.309	869.007	863.694	858.36	853.019
x2 = 0.1013	875.72	870.495	865.255	859.995	854.713	849.433
x2 = 0.1509	871.829	866.677	861.506	856.309	851.089	845.861
x2 = 0.2016	867.984	862.908	857.807	852.685	847.536	842.375
x2 = 0.2018	867.955	862.874	857.776	852.651	847.499	842.342
x2 = 0.25	864.382	859.372	854.344	849.285	844.201	839.11
x2 = 0.2997	860.741	855.806	850.849	845.866	840.854	835.83
x2 = 0.3532	856.936	852.081	847.201	842.294	837.357	832.4
x2 = 0.4019	853.504	848.721	843.914	839.08	834.214	829.324
x2 = 0.4525	850	845.3	840.574	835.817	831.029	826.217
x2 = 0.4998	846.738	842.111	837.46	832.778	828.059	823.32
x2 = 0.5532	843.129	838.594	834.03	829.436	824.804	820.157
x2 = 0.6004	839.985	835.529	831.042	826.525	821.974	817.402
x2 = 0.6493	836.693	832.317	827.91	823.473	819.001	814.449
x2 = 0.701	833.239	828.949	824.631	820.282	815.895	811.483
x2 = 0.7502	829.979	825.772	821.537	817.269	812.965	808.64
x2 = 0.7945	827.051	822.92	818.759	814.569	810.343	806.094
x2 = 0.8511	823.296	819.258	815.196	811.102	806.975	802.822
x2 = 0.8961	820.299	816.336	812.348	808.331	804.274	800.189
x2 = 0.951	816.663	812.791	808.897	804.977	801.025	797.051

ClC(Cl)Cl [trichloromethane] + CCCCO
mass density [kg/m3]
Conditions	288.15 K	293.15 K	298.15 K	303.15 K	308.15 K	313.15 K
x2 = 0	1498.08	1488.64	1479.15	1469.61	1460.03	1450.41
x2 = 0.0493	1458.97	1449.82	1440.63	1431.4	1422.12	1412.82
x2 = 0.0994	1420.12	1411.28	1402.39	1393.45	1384.45	1375.41
x2 = 0.1499	1381.86	1373.34	1364.77	1356.15	1347.47	1338.76
x2 = 0.2003	1344.3	1336.11	1327.86	1319.57	1311.21	1302.8
x2 = 0.2476	1309.65	1301.76	1293.82	1285.82	1277.77	1269.66
x2 = 0.279	1286.97	1279.28	1271.53	1263.75	1255.9	1248.02
x2 = 0.3474	1238.34	1231.07	1223.75	1216.37	1208.94	1201.48
x2 = 0.4003	1201.44	1194.48	1187.48	1180.42	1173.31	1166.16
x2 = 0.461	1159.74	1153.14	1146.5	1139.81	1133.06	1126.29
x2 = 0.4993	1133.81	1127.43	1121	1114.53	1108	1101.42
x2 = 0.5517	1098.6	1092.6	1086.4	1080.3	1074	1067.8
x2 = 0.5989	1067.38	1061.55	1055.69	1049.78	1043.81	1037.8
x2 = 0.651	1033.23	1027.7	1022.12	1016.5	1010.82	1005.11
x2 = 0.7008	1001.03	995.76	990.45	985.097	979.698	974.26
x2 = 0.7485	970.42	965.404	960.349	955.255	950.115	944.94
x2 = 0.7987	938.452	933.697	928.907	924.082	919.208	914.297
x2 = 0.8495	906.492	901.999	897.472	892.91	888.303	883.67
x2 = 0.8953	877.854	873.588	869.292	864.961	860.59	856.188
x2 = 0.9475	845.53	841.51	837.462	833.386	829.272	825.138
